Measurements as given in PMC12492669, “Malic enzyme-based system for transhydrogenation between nicotinamide cofactors” (Synthetic and Systems Biotechnology, 2025).

Target: T1, ME (NAD-dependent malic enzyme); ME∗ (ME mutant with L310R/Q401C) (Escherichia coli, UniProt P26616)
T1 construct: gene maeA; recombinant from E. coli BL21(DE3), pET24b-ME, Ni-NTA purified; 64 kDa
Assay: malate oxidative decarboxylation, absorbance at […] nm
Assay type: biochemical
Settings: 0.5 mM NCD, 5 mM malate, 2 mM MgCl2, 50 mM HEPES pH 7.5; weak

T1 sequence (P26616 whole entry, stated change not applied): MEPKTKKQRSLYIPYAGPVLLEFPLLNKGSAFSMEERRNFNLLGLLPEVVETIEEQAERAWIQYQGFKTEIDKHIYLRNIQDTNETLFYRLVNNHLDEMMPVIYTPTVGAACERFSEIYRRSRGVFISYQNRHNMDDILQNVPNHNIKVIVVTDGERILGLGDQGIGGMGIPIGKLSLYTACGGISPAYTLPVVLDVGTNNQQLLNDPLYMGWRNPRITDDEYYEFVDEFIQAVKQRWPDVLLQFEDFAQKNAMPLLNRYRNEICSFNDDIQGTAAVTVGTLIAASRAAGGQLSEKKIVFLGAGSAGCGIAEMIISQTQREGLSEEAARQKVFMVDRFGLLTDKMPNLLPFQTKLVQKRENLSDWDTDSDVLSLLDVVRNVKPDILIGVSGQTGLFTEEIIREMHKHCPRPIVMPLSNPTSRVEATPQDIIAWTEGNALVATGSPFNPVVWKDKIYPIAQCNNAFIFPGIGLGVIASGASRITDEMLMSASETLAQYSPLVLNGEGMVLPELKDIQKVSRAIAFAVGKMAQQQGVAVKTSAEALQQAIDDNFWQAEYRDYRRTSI

Compound: NC(=O)c1ccc[n+]([C@@H]2O[C@H](COP(=O)([O-])OP(=O)(O)OC[C@H]3O[C@@H](n4ccc(N)nc4=O)[C@H](O)[C@@H]3O)[C@@H](O)[C@H]2O)c1 [NCD]
- malate oxidative decarboxylation, absorbance at 340 nm: ME exhibited the highest activity towards NAD and weak activity towards NCD and NADP
